Data published in patent EP2604265A1, “P2x7 antagonists as frontline or adjunctive treatment against status epilepticus” (Royal College of Surgeons in Ireland (RCSI), priority 2011, dated 2013).

Columns and labels:
microglia = assay: Iba-1 immunostaining, activated microglia counts in CA3 after SE; type: in vivo, mice; conditions: CA3, 24 h after SE; vs vehicle
Experimental: Adult male C57BL/6 mice (20-25 g) were obtained from Harlan UK (Blackthorn, UK). Mice were first anesthetized using isoflurane (3-5%) and maintained normothermic by means of a feedback-controlled heat blanket (Harvard Apparatus Ltd, Kent, UK). Mice were next placed in a stereotaxic frame and three partial craniectomies performed to affix cortical skull-mounted EEG electrodes (Bilaney Consultants Ltd, Sevenoaks, UK). EEG was recorded using a Grass Comet XL digital EEG (Medivent Ltd, Lucan, Ireland). A guide cannula was affixed (coordinates from Bregma: AP = 0.94; L = 2.85 mm) and the assembly fixed in place with dental cement. Anesthesia was then discontinued and freely moving mice were placed inside a clear perspex recording chamber. EEG recordings were commenced and after establishing baseline EEG for a few minutes, an injection cannula was lowered through the guide cannula for injection of kainic acid (KA) (Ocean Produce International, Nova Scotia, Canada) into the basolateral amygdala nucleus (0.3 µg in 0.2 µl phosphate-buffered saline). Non-seizure control mice underwent the same surgical procedure but received 0.2 µl intra-amygdala vehicle. Mice were killed at different time-points (1, 4, 8 or 24 h) later and perfused with saline to remove intravascular blood components. […]

Adult male C57BL/6 mice [1] = assay: Intra-amygdala KA-induced SE in mice, EEG, drug i.c.v. immediately prior to KA; type: in vivo; conditions: i.c.v. co-injection immediately prior to intra-amygdala KA; vs vehicle (antibody vs control IgG); lorazepam at 40 min
Experimental: (§1) Adult male C57BL/6 mice (20-25 g) were obtained from Harlan UK (Blackthorn, UK). Mice were first anesthetized using isoflurane (3-5%) and maintained normothermic by means of a feedback-controlled heat blanket (Harvard Apparatus Ltd, Kent, UK). Mice were next placed in a stereotaxic frame and three partial craniectomies performed to affix cortical skull-mounted EEG electrodes (Bilaney Consultants Ltd, Sevenoaks, UK). EEG was recorded using a Grass Comet XL digital EEG (Medivent Ltd, Lucan, Ireland). A guide cannula was affixed (coordinates from Bregma: AP = 0.94; L = 2.85 mm) and the assembly fixed in place with dental cement. Anesthesia was then discontinued and freely moving mice were placed inside a clear perspex recording chamber. EEG recordings were commenced and after establishing baseline EEG for a few minutes, an injection cannula was lowered through the guide cannula for injection of kainic acid (KA) (Ocean Produce International, Nova Scotia, Canada) into the basolateral amygdala nucleus (0.3 µg in 0.2 µl phosphate-buffered saline). Non-seizure control mice underwent the same surgical procedure but received 0.2 µl intra-amygdala vehicle. Mice were killed at different time-points (1, 4, 8 or 24 h) later and perfused with saline to remove intravascular blood components. Brains were either flash-frozen whole in 2-methylbutane at […] or perfused with 4% PFA for histopathology, or dissected on ice to obtain whole hippocampus or microdissected to obtain the different hippocampal subfields (CA1, DG and CA3).
Digitized EEG recordings were analyzed off-line using manual assessment and automated software. […] The duration of high-frequency (>5 Hz) high-amplitude (>2× baseline) polyspike discharges of ≥5 s duration (HAHFDs) was counted by a reviewer blind to treatment. Further EEG analysis was performed by uploading EEG into Labchart7 software (ADInstruments) to calculate the power spectral density (total power, a measure of the input signal's power (amplitude) over frequency) EEG spectrogram (spectral power against frequency and time).
All the following drugs were purchased from Sigma-Aldrich Ireland (Arklow, Ireland) and delivered by intracerebroventricular (i.c.v.) microinjection in 2 µl volume unless otherwise specified: Adenosine 5'-triphosphate (ATP) at 100 µM, Uridine-5'-triphosphate (UTP) at 100 µM, Uridine-5'-diphosphate (UDP) at 100 µM, 2-chloro-N6-cyclopentyladenosine (CCPA) 300 nM, Pyridoxal-phosphate-6-azophenyl-2,4-disulfonate (PPADS) at 50 µM, α,β- methylene- adenosine-5-triphosphate (α,β-meATP) at 0.1 nmol, 3-O-(4-benzoyl)benzyl-ATP (Bz-ATP) at 300 µM, Brillant Blue G (BBG) at 30 nM.
Lorazepam (Ativan®, Wyeth, Taplow, U.K.) (6 mg/kg) was administered intraperitoneally (i.p.) at 40 or 60 min after KA.
Next, a model of focal-onset SE was used to evaluate the contributions of ATP-gated receptors in vivo. Mice received intra-amygdala microinjection of KA to induce SE (Fig. 2C). […] The electroencephalogram (EEG) was recorded by using cranial electrodes (lower part of Fig. 2C). Seizures were curtailed after 40 min by the injection of lorazepam to minimize morbidity and mortality.

Adult male C57BL/6 mice [2] = assay: Histopathology of ipsilateral hippocampal CA3 after SE (FJB and NeuN counts); type: in vivo; conditions: 24 h after SE, vs vehicle; for Counts of surviving CA3 neurons (NeuN) / FJB-positive cells within the CA3 subfield (neuronal death): drug given prior to SE
Experimental: as §1
Flash-frozen brains in 2-methylbutane were sectioned at -20°C on a Leica cryostat and 12 µm sections collected at the level of dorsal hippocampus (-1.8 mm and - 2.9 mm from Bregma according to a mouse stereotaxic atlas (Paxinos and Franklin, 2001). Neuronal death was assessed using Fluoro-Jade B (FJB) staining, as previously described (Engel et al., 2010; Murphy et al., 2010). Briefly, sections were air-dried and post-fixed in formalin followed by hydrating through graded alcohols. Sections were then rinsed in distilled water and transferred to 0.006% potassium permanganate solution for 15 min. Sections were rinsed again and transferred to a 0.001% FJB solution according to manufacturer's recommendations (Chemicon Europe Ltd, Chandlers Ford, UK). After staining, sections were mounted in DPX (Sigma-Aldrich). For NeuN immunohistochemistry, sections were fixed and permeabilized, blocked in goat serum and incubated overnight with anti-NeuN antibodies (Millipore Ireland B.V., Tullagreen, Ireland) followed by incubation with goat anti-rabbit IgG antibodies coupled to AlexaFluor 568 (BioSciences Limited, Dun Laoghaire, Ireland). Sections were examined using a Nikon 2000s epifluorescence microscope under Ex/Em wavelengths of 472/520 nm (green) and 540 to 580/600 to 660 nm (red) and images captured using a Hamamatsu Orca 285 camera. Cell counts were the average of two adjacent sections for the CA3 subfield under 40x lens magnification by an observer blinded to treatment.

Cl.Clc1cccc(-c2nnnn2Cc2cccnc2)c1Cl [A-438079, 3-[[5-(2,3-Dichlorophenyl)-1H-tetrazol-1-yl]methyl]pyridine hydrochloride]
Reactive microglia (Iba-1) (microglia): significantly reduced | seizure time during SE (duration of HAHFDs) (Adult male C57BL/6 mice [1]): significantly reduced seizure time | Counts of surviving CA3 neurons (NeuN) (Adult male C57BL/6 mice [2]): significantly higher | FJB-positive cells within the CA3 subfield (neuronal death) (Adult male C57BL/6 mice [2]): protect the hippocampus against SE-induced neuronal death | FJB-positive cells in CA3 (Adult male C57BL/6 mice [2]; injected 15 min after KA): significantly fewer | NeuN-positive cells in CA3 (Adult male C57BL/6 mice [2]; injected 15 min after KA): significantly more

CCOc1ccc(Nc2ccc(C(=C3C=CC(=[N+](CC)Cc4cccc(S(=O)(=O)[O-])c4)C=C3C)c3ccc(N(CC)Cc4cccc(S(=O)(=O)O)c4)cc3C)cc2)cc1 [BBG, Brilliant Blue G]
Reactive microglia (Iba-1) (microglia): significantly reduced | seizure time during SE (duration of HAHFDs) (Adult male C57BL/6 mice [1]): significantly reduced seizure time | Counts of surviving CA3 neurons (NeuN) (Adult male C57BL/6 mice [2]): significantly higher | FJB-positive cells within the CA3 subfield (neuronal death) (Adult male C57BL/6 mice [2]): significantly less damage
